Laboratory results published in patent publication US20260078120A1, “SUBSTITUTED PYRIDOPYRIMIDINONES” (MIRATI THERAPEUTICS, INC., priority 2022, published 2026).
Where two headings read alike, the source gives them in different places.

How the values were obtained:
[1] = system: T47D (PI3Kα H1047R mutant) cells; test: CellTiter-Glo 2.0 luminescent cell viability assay, 72 hours, T47D cells; format: cell-based; settings: T47D (PI3Kα H1047R mutant) cells, CellTiter-Glo, approximately 72 hours, read-out: T47D (H1047R mutant) Viability IC50
How it was run: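 Cells seeded at 1000 per well overnight were dosed with a 10-concentration, 1:4 series starting at 10 µM and incubated ~72 h at 37° C. Viability was read by CellTiter-Glo 2.0 luminescence after 30 min at room temperature. IC50 came from four-parameter fits of percent vehicle control.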

[2] = system: SKBR3 (PI3Kα wild type) cells; test: CellTiter-Glo 2.0 luminescent cell viability assay, 72 hours, SKBR3 cells; format: cell-based; settings: SKBR3 (PI3Kα wild type) cells, CellTiter-Glo, approximately 72 hours, read-out: SKBR3 (WT) Viability IC50
How it was run: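 Viability measured via CTG luminescence following roughly 72 hours of compound exposure at 37° C. Dosing used a 10 um starting concentration diluted 1:4 over 10 points; percent-of-vehicle data fitted with a variable-slope four-parameter model for IC50.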

Compound	IC50 ([1]; Homo sapiens, T47D, 72 h) [nM]	IC50 ([2]; Homo sapiens, SK-BR-3, 72 h) [nM]	IC50 [1] [nM]	IC50 [2] [nM]
Cc1cc([C@@H](C)Nc2ccccc2C(=O)O)c2nc(N3CC4(CO)CCCC3C4)c(C)c(=O)n2c1 (stereo partly drawn) [Example 10-144, 2-(((1R)-1-(2-(1-(hydroxymethyl)-6-azabicyclo[3.2.1]octan-6-yl)-3,7-dimethyl-4-oxo-4H-pyrido[1,2-a]pyrimidin-9-yl)ethyl)amino)benzoic acid]	91.3	> 10000		
Cc1cc([C@@H](C)Nc2ccccc2C(=O)O)c2nc(N3CC4CC3CC4c3ccccc3)c(C)c(=O)n2c1 (stereo partly drawn) [Example 11-32, 2-(((1R)-1-(3,7-dimethyl-4-oxo-2-(5-phenyl-2-azabicyclo[2.2.1]heptan-2-yl)-4H-pyrido[1,2-a]pyrimidin-9-yl)ethyl)amino)benzoic acid]	303	> 10000		
Cc1cc([C@@H](C)Nc2ccc(Cl)nc2C(=O)O)c2nc(NCC3CC3)c(C#N)c(=O)n2c1 [Example 11-206, (R)-6-chloro-3-((1-(3-cyano-2-((cyclopropylmethyl)amino)-7-methyl-4-oxo-4H-pyrido[1,2-a]pyrimidin-9-yl)ethyl)amino)picolinic acid]	132	> 10000		
Cc1cc([C@@H](C)Nc2ccccc2C(=O)O)c2nc(N3C[C@H]4C[C@@H]3CN4c3ccc(C#N)cc3)c(C#N)c(=O)n2c1 [Example 11-174, 2-(((R)-1-(3-cyano-2-((1R,4R)-5-(4-cyanophenyl)-2,5-diazabicyclo[2.2.1]heptan-2-yl)-7-methyl-4-oxo-4H-pyrido[1,2-a]pyrimidin-9-yl)ethyl)amino)benzoic acid]	900	> 10000		
COc1ccc(-c2cc(=O)n3cc(C)cc(C(C)Nc4ccccc4C(=O)O)c3n2)cc1 (stereo not shown) [Example 11-392, 2-((1-(2-(4-methoxyphenyl)-7-methyl-4-oxo-4H-pyrido[1,2-a]pyrimidin-9-yl)ethyl)amino)benzoic acid]	4040	> 10000		
Cc1cc([C@@H](C)Nc2ccc(Cl)cc2C(=O)O)c2nc(N3CCC(F)(F)CC3)c(C)c(=O)n2c1 [Example 11-91, (R)-5-chloro-2-((1-(2-(4,4-difluoropiperidin-1-yl)-3,7-dimethyl-4-oxo-4H-pyrido[1,2-a]pyrimidin-9-yl)ethyl)amino)benzoic acid]	358	> 10000		
Cc1cc([C@@H](C)Nc2ccccc2C(=O)O)c2nc(N3C4CC5CC(C4)CC3C5)c(C)c(=O)n2c1 [Example 11-29, (R)-2-((1-(2-(2-azaadamantan-2-yl)-3,7-dimethyl-4-oxo-4H-pyrido[1,2-a]pyrimidin-9-yl)ethyl)amino)benzoic acid]	244	> 10000		
Cc1cc([C@@H](C)Nc2ccccc2C(=O)O)c2nc(N3CCC4(CCC(F)(F)C4)C3)c(C)c(=O)n2c1 (stereo partly drawn) [Example 11-447, 2-(((1R)-1-(2-(7,7-difluoro-2-azaspiro[4.4]nonan-2-yl)-3,7-dimethyl-4-oxo-4H-pyrido[1,2-a]pyrimidin-9-yl)ethyl)amino)benzoic acid]	645	> 10000		
Cc1cc([C@@H](C)Nc2ccccc2C(=O)O)c2nc(N3CCN(C4CCOCC4)CC3)c(C#N)c(=O)n2c1 [Example 11-186, (R)-2-((1-(3-cyano-7-methyl-4-oxo-2-(4-(tetrahydro-2H-pyran-4-yl)piperazin-1-yl)-4H-pyrido[1,2-a]pyrimidin-9-yl)ethyl)amino)benzoic acid]	606	> 10000		
Cc1cc(C(C)Nc2ccccc2C(=O)O)c2nc(-c3ccc(C#N)cc3)cc(=O)n2c1 (stereo not shown) [Example 11-397, 2-((1-(2-(4-cyanophenyl)-7-methyl-4-oxo-4H-pyrido[1,2-a]pyrimidin-9-yl)ethyl)amino)benzoic acid]	3360	> 10000		
Cc1cc([C@@H](C)Nc2ccccc2C(=O)O)c2nc(N3CCN(c4nc(C)cs4)CC3)c(C)c(=O)n2c1 [Example 11-446, (R)-2-((1-(3,7-dimethyl-2-(4-(4-methylthiazol-2-yl)piperazin-1-yl)-4-oxo-4H-pyrido[1,2-a]pyrimidin-9-yl)ethyl)amino)benzoic acid]	300	> 10000		
Cc1cc([C@@H](C)Nc2ccc(Cl)nc2C(=O)O)c2nc(N3CC4C(C3)C4(F)F)c(C#N)c(=O)n2c1 (stereo partly drawn) [Example 11-143, 6-chloro-3-(((1R)-1-(3-cyano-2-(6,6-difluoro-3-azabicyclo[3.1.0]hexan-3-yl)-7-methyl-4-oxo-4H-pyrido[1,2-a]pyrimidin-9-yl)ethyl)amino)picolinic acid]	795	> 10000		
Cc1cc([C@@H](C)Nc2ccccc2C(=O)O)c2nc(N3CCCC(O)C3)c(C#N)c(=O)n2c1 (stereo partly drawn) [Example 11-324, 2-(((1R)-1-(3-cyano-2-(3-hydroxypiperidin-1-yl)-7-methyl-4-oxo-4H-pyrido[1,2-a]pyrimidin-9-yl)ethyl)amino)benzoic acid]	3820	> 10000		
Cc1cc([C@@H](C)Nc2ccccc2C(=O)O)c2nc(N3CCN(C4CC4)CC3)c(C#N)c(=O)n2c1 [Example 11-150, (R)-2-((1-(3-cyano-2-(4-cyclopropylpiperazin-1-yl)-7-methyl-4-oxo-4H-pyrido[1,2-a]pyrimidin-9-yl)ethyl)amino)benzoic acid]	342	> 10000		
Cc1cc([C@@H](C)Nc2ccccc2C(=O)O)c2nc(N3CC4(C3)CC(F)(F)C4)c(C)c(=O)n2c1 [Example 11-202, (R)-2-((1-(2-(6,6-difluoro-2-azaspiro[3.3]heptan-2-yl)-3,7-dimethyl-4-oxo-4H-pyrido[1,2-a]pyrimidin-9-yl)ethyl)amino)benzoic acid]	304	> 10000		
Cc1cc([C@@H](C)Nc2ccccc2C(=O)O)c2nc(N3CCC4(CCOC4)CC3)c(C)c(=O)n2c1 [Example 11-62, (R)-2-((1-(3,7-dimethyl-4-oxo-2-(2-oxa-8-azaspiro[4.5]decan-8-yl)-4H-pyrido[1,2-a]pyrimidin-9-yl)ethyl)amino)benzoic acid]			173	> 10000

Results, then the compound that gave them:

IC50 ([1]; Homo sapiens, T47D, 72 h) [nM]	IC50 ([2]; Homo sapiens, SK-BR-3, 72 h) [nM]	IC50 [1] [nM]	IC50 [2] [nM]	Compound
16.9	> 10000			Cc1cc([C@@H](C)Nc2ccccc2C(=O)O)c2nc(N3CCc4ccccc4C3)c(C)c(=O)n2c1 [Example 10-7, (R)-2-((1-(2-(3,4-dihydroisoquinolin-2(1H)-yl)-3,7-dimethyl-4-oxo-4H-pyrido[1,2-a]pyrimidin-9-yl)ethyl)amino)benzoic acid]
392	> 10000			Cc1c(N2Cc3ccccc3C2)nc2c([C@@H](C)Nc3ccccc3C(=O)O)cc(F)cn2c1=O [Example 11-290, (R)-2-((1-(7-fluoro-2-(isoindolin-2-yl)-3-methyl-4-oxo-4H-pyrido[1,2-a]pyrimidin-9-yl)ethyl)amino)benzoic acid]
117	> 10000			Cc1c(N2Cc3ccccc3C2)nc2c([C@@H](C)Nc3ccccc3C(=O)O)cc(Cl)cn2c1=O [Example 11-291, (R)-2-((1-(7-chloro-2-(isoindolin-2-yl)-3-methyl-4-oxo-4H-pyrido[1,2-a]pyrimidin-9-yl)ethyl)amino)benzoic acid]
3270	> 10000			Cc1cc([C@H](C)Nc2ccc(F)cc2C(=O)O)c2nc(N3Cc4ccccc4C3)c(C)c(=O)n2c1 [Example 11-365, (S)-5-fluoro-2-((1-(2-(isoindolin-2-yl)-3,7-dimethyl-4-oxo-4H-pyrido[1,2-a]pyrimidin-9-yl)ethyl)amino)benzoic acid]
117	> 10000			Cc1cc([C@@H](C)Nc2ccccc2C(=O)O)c2nc(N3CC4(CCC4(F)F)C3)c(C)c(=O)n2c1 [Example 11-201, (R)-2-((1-(2-(5,5-difluoro-2-azaspiro[3.3]heptan-2-yl)-3,7-dimethyl-4-oxo-4H-pyrido[1,2-a]pyrimidin-9-yl)ethyl)amino)benzoic acid]
225	> 10000			Cc1cc([C@@H](C)Nc2ccccc2C(=O)O)c2nc(N3CC[C@H]3C)c(C)c(=O)n2c1 [Example 11-100, 2-(((R)-1-(3,7-dimethyl-2-((R)-2-methylazetidin-1-yl)-4-oxo-4H-pyrido[1,2-a]pyrimidin-9-yl)ethyl)amino)benzoic acid]
143	9930			C[C@H](Nc1ccccc1C(=O)O)c1cc(C2CC2)cn2c(=O)c(C#N)c(N3Cc4ccccc4C3)nc12 [Example 11-327, (S)-2-((1-(3-cyano-7-cyclopropyl-2-(isoindolin-2-yl)-4-oxo-4H-pyrido[1,2-a]pyrimidin-9-yl)ethyl)amino)benzoic acid]
6300	> 10000			Cc1cc([C@H](C)Nc2ccc(C(F)(F)F)nc2C(=O)O)c2nc(N3Cc4ccccc4C3)c(C)c(=O)n2c1 [Example 11-353, (S)-3-((1-(2-(isoindolin-2-yl)-3,7-dimethyl-4-oxo-4H-pyrido[1,2-a]pyrimidin-9-yl)ethyl)amino)-6-(trifluoromethyl) picolinic acid]
239	> 10000			Cc1cc([C@@H](C)Nc2ccccc2C(=O)O)c2nc(N3CC(c4cccnc4)C3)c(C)c(=O)n2c1 [Example 11-21, (R)-2-((1-(3,7-dimethyl-4-oxo-2-(3-(pyridin-3-yl)azetidin-1-yl)-4H-pyrido[1,2-a]pyrimidin-9-yl)ethyl)amino)benzoic acid]
475	> 10000			Cc1cc([C@@H](C)Nc2ccccc2C(=O)O)c2nc(N3CC4(C3)CC4(F)F)c(C)c(=O)n2c1 [Example 11-103, (R)-2-((1-(2-(1,1-difluoro-5-azaspiro[2.3]hexan-5-yl)-3,7-dimethyl-4-oxo-4H-pyrido[1,2-a]pyrimidin-9-yl)ethyl)amino)benzoic acid]
